The record followed here is BindingDB's records for doi:10.1021/acs.jmedchem.8b00864 (2018).

Test [1] deals with 2-acylglycerol O-acyltransferase 2 (MOGAT2, Homo sapiens) (UniProt Q3SYC2). Briefly: Inhibition of recombinant human MGAT2.
Test [2] has the same target. As to the kind of experiment: Inhibition of recombinant human MGAT2 using 2-monooleoyl glycerol/[1-14C]-oleoyl CoA as substrate after 30 mins by liquid scintillation counting method.
For test [3] the target is unchanged. As to the kind of experiment: Inhibition of recombinant human MGAT2 expressed in sf9 cells using 2-monooleoyl glycerol/[14C]-oleoyl CoA as substrate by microscintillation counting method.

Chain of 2-acylglycerol O-acyltransferase 2 (MOGAT2, Homo sapiens) (Q3SYC2 whole entry, looked up): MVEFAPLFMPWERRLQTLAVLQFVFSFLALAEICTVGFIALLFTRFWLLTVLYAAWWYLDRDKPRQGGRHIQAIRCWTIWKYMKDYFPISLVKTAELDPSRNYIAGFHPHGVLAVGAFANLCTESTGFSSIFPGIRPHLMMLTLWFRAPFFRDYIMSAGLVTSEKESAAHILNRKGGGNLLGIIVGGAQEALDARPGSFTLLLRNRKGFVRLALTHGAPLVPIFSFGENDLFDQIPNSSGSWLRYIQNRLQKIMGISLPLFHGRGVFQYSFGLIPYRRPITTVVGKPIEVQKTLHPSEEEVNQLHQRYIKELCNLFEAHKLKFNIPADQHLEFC

Usually IC50 stands for the midpoint of a concentration-inhibition curve. Take `CC(C)(C)c1cc(C(C)(C)C)nc(N2CCn3c(nnc3-c3ccc(OC(F)(F)F)cc3)C2)n1`: the IC50 in test [1] is 19 nM.

Take `CCc1ccc(-c2cc(-c3ccc(OCCCCCC(F)(F)F)cc3C(F)(F)F)[nH]c(=O)c2-c2nn[nH]n2)s1`: the IC50 in test [1] came out at 0.3 nM.

With `Cc1ccc(C2=C(C(=O)Nc3ccc(-c4nnn[nH]4)cc3)C(=O)N[C@@](c3ccc(OCCCC(F)(F)F)cc3F)(C(F)(F)F)C2)cc1`, the IC50 in test [1] was found to be 7 nM.

For the compound `O=C(CCNCC1COc2ccccc2O1)N1CCc2nc(SC3CCC3)n(-c3ccccc3)c(=O)c2C1` (configuration not stated), the IC50 in test [1] worked out at 1.1 nM.

Turning to `O=C(CNCCCCCOc1ccc(C(F)(F)F)cc1)N1CCc2nc(SC3CCC3)n(-c3ccccc3)c(=O)c2C1`, the half-inhibitory concentration (IC50) in test [1] was found to be 0.64 nM.

As to `O=C1N[C@@]2(CCc3cc(OCCCC(F)(F)F)ccc32)CC(c2cnc(C3CC3)s2)=C1c1noc(=O)[nH]1`, in test [1], the IC50 is below 1 nM.

Take `O=C(CCNC1Cc2ccccc2C1)N1CCc2nc(SC3CCC3)n(-c3ccccc3)c(=O)c2C1`: in test [2], the IC50 worked out at 0.38 nM.

With `O=c1c2c(nc(SCc3cccnc3)n1-c1ccccc1)CCN(c1nc3cc(C(F)(F)F)ccc3[nH]1)C2`, in test [1], the IC50 was determined as 56 nM.

In the case of `CC(C)(C)C1CCN(Cc2ccc([C@H](NS(C)(=O)=O)C(F)(F)F)cc2)CC1`, the IC50 in test [3] was determined as 58 nM.

As for `O=C1N[C@@](c2ccc(OCCCC(F)(F)F)cc2F)(C(F)(F)F)CC(c2ncc(C3CC3)s2)=C1n1nn[nH]c1=O`, in test [1], the IC50 was 2 nM.

With `CCOC(=O)CCc1ccc(CN2CC(C(=O)N3CCc4nc(SC5CCCCC5)n(-c5ccccc5)c(=O)c4C3)C2)cc1`, in test [1], the IC50 turned out to be 4 nM.

In the case of `CS(=O)(=O)N[C@@H](c1ccc(CNC[C@H]2COc3cccnc3O2)cc1)C(F)(F)F`, the IC50 in test [3] is 3.8 nM.
